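Grown in 96-well plates, cells were treated for 48 hours with each compound at five concentrations. Insufficient inhibition: endpoint recorded as highest concentration tested. At the GI50, growth is halved. The concentration for full growth arrest is given as TGI.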
Columns and labels:
Test in all cases: NCI-60 cell line screen, 48 h
CCRF-CEM leukemia = test system: CCRF-CEM leukemia
HCT-116 colon = test system: HCT-116 colon
HOP-62 NSCLC = test system: HOP-62 NSCLC
HT29 colon = test system: HT29 colon
M14 melanoma = test system: M14 melanoma
MOLT-4 leukemia = test system: MOLT-4 leukemia
OVCAR-3 ovarian = test system: OVCAR-3 ovarian
OVCAR-8 ovarian = test system: OVCAR-8 ovarian
TK-10 renal = test system: TK-10 renal
U251 CNS = test system: U251 CNS

CN(C)c1ccc(/C=C2\N=C(c3ccc([N+](=O)[O-])cc3)OC2=O)cc1
TGI (CCRF-CEM leukemia): 97.9 µM
TGI (HCT-116 colon): > 100 µM
TGI (HOP-62 NSCLC): > 100 µM
TGI (HT29 colon): > 100 µM
TGI (M14 melanoma): > 100 µM
TGI (MOLT-4 leukemia): > 100 µM
TGI (OVCAR-3 ovarian): > 100 µM
TGI (OVCAR-8 ovarian): > 100 µM
TGI (TK-10 renal): > 100 µM
TGI (U251 CNS): > 100 µM

COC(=O)[C@]12CC[C@@H](C)[C@H](C)[C@@H]1C1=CC[C@@H]3[C@@]4(C)C(C=O)=C[C@@](C)(COC(=O)c5ccco5)[C@@H]4C(=O)C[C@@]3(C)[C@]1(C)CC2
GI50 (CCRF-CEM leukemia): 2.42 µM
TGI (CCRF-CEM leukemia): 12.6 µM
GI50 (HCT-116 colon): 3.68 µM
TGI (HCT-116 colon): > 100 µM
GI50 (HOP-62 NSCLC): 18.9 µM
TGI (HOP-62 NSCLC): > 100 µM
GI50 (HT29 colon): 7.92 µM
TGI (HT29 colon): > 100 µM
GI50 (M14 melanoma): 0.286 µM
TGI (M14 melanoma): > 100 µM
GI50 (MOLT-4 leukemia): 2.08 µM
TGI (MOLT-4 leukemia): 7.8 µM
GI50 (OVCAR-3 ovarian): 5.75 µM
TGI (OVCAR-3 ovarian): > 100 µM
GI50 (OVCAR-8 ovarian): 5.55 µM
TGI (OVCAR-8 ovarian): > 100 µM
GI50 (TK-10 renal): 11.7 µM
TGI (TK-10 renal): > 100 µM
GI50 (U251 CNS): 4.83 µM
TGI (U251 CNS): > 100 µM

CC/C=C\C/C=C\C[C@H](O)C/C=C1/C(=O)C=C[C@@H]1C/C=C\CCCC(=O)O
GI50 (CCRF-CEM leukemia): 2.17 µM
TGI (CCRF-CEM leukemia): 14 µM
GI50 (HCT-116 colon): 2.08 µM
TGI (HCT-116 colon): 4.5 µM
GI50 (HOP-62 NSCLC): 2.77 µM
TGI (HOP-62 NSCLC): 7.4 µM
GI50 (HT29 colon): 3.78 µM
TGI (HT29 colon): 11.4 µM
GI50 (M14 melanoma): 2.82 µM
TGI (M14 melanoma): 12 µM
GI50 (MOLT-4 leukemia): 2.83 µM
TGI (MOLT-4 leukemia): 11.8 µM
GI50 (OVCAR-3 ovarian): 3.23 µM
TGI (OVCAR-3 ovarian): 12.7 µM
GI50 (OVCAR-8 ovarian): 3.56 µM
TGI (OVCAR-8 ovarian): 13.9 µM
GI50 (TK-10 renal): 8.06 µM
TGI (TK-10 renal): 21.1 µM
GI50 (U251 CNS): 3.54 µM
TGI (U251 CNS): 12.2 µM

CNC(=O)c1ccc2cc(C3(O)CCn4cncc43)ccc2c1 (stereo not given)
GI50 (CCRF-CEM leukemia): > 100 µM
TGI (CCRF-CEM leukemia): > 100 µM
GI50 (HCT-116 colon): > 100 µM
TGI (HCT-116 colon): > 100 µM
GI50 (HOP-62 NSCLC): > 100 µM
TGI (HOP-62 NSCLC): > 100 µM
GI50 (HT29 colon): > 100 µM
TGI (HT29 colon): > 100 µM
GI50 (M14 melanoma): > 100 µM
TGI (M14 melanoma): > 100 µM
GI50 (MOLT-4 leukemia): > 100 µM
TGI (MOLT-4 leukemia): > 100 µM
GI50 (OVCAR-3 ovarian): > 100 µM
TGI (OVCAR-3 ovarian): > 100 µM
GI50 (OVCAR-8 ovarian): > 100 µM
TGI (OVCAR-8 ovarian): > 100 µM
GI50 (TK-10 renal): > 100 µM
TGI (TK-10 renal): > 100 µM
GI50 (U251 CNS): > 100 µM
TGI (U251 CNS): > 100 µM

O=C(CN1CCN(c2ccc(Cl)cc2)CC1)N1CCN(c2nnc(-c3ccc(Cl)cc3)c(-c3ccc(Cl)cc3)n2)CC1
GI50 (CCRF-CEM leukemia): 16.5 µM
TGI (CCRF-CEM leukemia): 73.9 µM
GI50 (HCT-116 colon): 7.84 µM
TGI (HCT-116 colon): > 100 µM
GI50 (HOP-62 NSCLC): 40.9 µM
TGI (HOP-62 NSCLC): > 100 µM
GI50 (HT29 colon): 9.85 µM
TGI (HT29 colon): > 100 µM
GI50 (M14 melanoma): 28.2 µM
TGI (M14 melanoma): > 100 µM
GI50 (MOLT-4 leukemia): 5.92 µM
TGI (MOLT-4 leukemia): > 100 µM
GI50 (OVCAR-3 ovarian): 48.3 µM
TGI (OVCAR-3 ovarian): > 100 µM
GI50 (OVCAR-8 ovarian): > 100 µM
TGI (OVCAR-8 ovarian): > 100 µM
GI50 (TK-10 renal): 26.2 µM
TGI (TK-10 renal): > 100 µM
GI50 (U251 CNS): 41.7 µM
TGI (U251 CNS): > 100 µM

COC(=O)C1=C(C(=O)OC)C23CC1C1C(C(=O)OC)=C(C(=O)OC)C12C1C=CC3C2C(=O)OC(=O)C21 (stereo not given)
TGI (CCRF-CEM leukemia): > 100 µM
TGI (HCT-116 colon): > 100 µM
TGI (HOP-62 NSCLC): > 100 µM
TGI (HT29 colon): > 100 µM
TGI (M14 melanoma): > 100 µM
TGI (MOLT-4 leukemia): > 100 µM
TGI (OVCAR-3 ovarian): 17.6 µM
TGI (OVCAR-8 ovarian): > 100 µM
TGI (TK-10 renal): > 100 µM
TGI (U251 CNS): > 100 µM

COC1CCC(O)C(/C=C/[N+](=O)[O-])C1 (stereo not given)
TGI (CCRF-CEM leukemia): > 100 µM
TGI (HCT-116 colon): 4.58 µM
TGI (HOP-62 NSCLC): 19.1 µM
TGI (HT29 colon): 11.2 µM
TGI (M14 melanoma): 10.7 µM
TGI (MOLT-4 leukemia): 6.55 µM
TGI (OVCAR-3 ovarian): 22.3 µM
TGI (OVCAR-8 ovarian): 4.69 µM
TGI (TK-10 renal): 16.1 µM
TGI (U251 CNS): 8.04 µM

— PubChem BioAssay (NCI)
